Source: article PMC8258697 (The Journal of Biological Chemistry, 2021)

Assays:
RXRα homodimer = biological target: T1, RXRα homodimer (Homo sapiens, UniProt P19793); test: RXRα homodimer formation HTRF assay, sGFP-RXRα LBD titrated against biotinylated RXRα LBD (wildtype); type: binding; details: 10 μM ligand compared with no ligand
T1 construct: His10-tag with TEV site (N, cleaved yes); made in house; host or cells: E. coli T7 express (co-expressed with GroEL/ES)
T1 sequence (P19793 226-462) 1: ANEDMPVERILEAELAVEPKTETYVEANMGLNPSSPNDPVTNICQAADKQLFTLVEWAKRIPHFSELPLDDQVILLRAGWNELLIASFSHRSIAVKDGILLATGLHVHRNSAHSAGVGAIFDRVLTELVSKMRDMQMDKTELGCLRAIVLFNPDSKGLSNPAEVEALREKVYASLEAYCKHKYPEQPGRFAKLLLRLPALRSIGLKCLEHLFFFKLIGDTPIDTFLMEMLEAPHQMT
T1 sequence (P19793 226-462) 2: T1 sequence (P19793 226-462) 1

PPARγ LBD = test: Two-dimensional titration of SR11237 and unlabeled mutant RXRα LBD: CBP-1 recruitment by sGFP-PPARγ LBD (HTRF); type: biochemical, human;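 on HTRF mean; N=2: mutant RXRα LBD carries mutations that block its own coactivator recruitment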

Compound: CC1(C)CCC(C)(C)c2cc(C3(c4ccc(C(=O)O)cc4)OCCO3)ccc21 [SR11237]
- effect on RXRα homodimer formation (RXRα homodimer): significantly destabilized the homodimer
- HTRF mean; N=2 (PPARγ LBD; SR11237 0.268435 nM, RXRα mutant LBD 0.976562 nM): 7866
- HTRF mean; N=2 (PPARγ LBD; SR11237 0.268435 nM, RXRα mutant LBD 1.95312 nM): 7838
- HTRF mean; N=2 (PPARγ LBD; SR11237 0.268435 nM, RXRα mutant LBD 3.90625 nM): 7920
- HTRF mean; N=2 (PPARγ LBD; SR11237 0.268435 nM, RXRα mutant LBD 7.8125 nM): 7909
- HTRF mean; N=2 (PPARγ LBD; SR11237 0.268435 nM, RXRα mutant LBD 31.25 nM): 7903
- HTRF mean; N=2 (PPARγ LBD; SR11237 0.268435 nM, RXRα mutant LBD 62.5 nM): 8248
- HTRF mean; N=2 (PPARγ LBD; SR11237 0.268435 nM, RXRα mutant LBD 250 nM): 8688
- HTRF mean; N=2 (PPARγ LBD; SR11237 0.268435 nM, RXRα mutant LBD 500 nM): 8760
- HTRF mean; N=2 (PPARγ LBD; SR11237 0.268435 nM, RXRα mutant LBD 1000 nM): 8782
- HTRF mean; N=2 (PPARγ LBD; SR11237 0.671089 nM, RXRα mutant LBD 0.976562 nM): 8003
- HTRF mean; N=2 (PPARγ LBD; SR11237 0.671089 nM, RXRα mutant LBD 1.95312 nM): 7881
- HTRF mean; N=2 (PPARγ LBD; SR11237 0.671089 nM, RXRα mutant LBD 3.90625 nM): 7929
- HTRF mean; N=2 (PPARγ LBD; SR11237 0.671089 nM, RXRα mutant LBD 7.8125 nM): 7967
- HTRF mean; N=2 (PPARγ LBD; SR11237 0.671089 nM, RXRα mutant LBD 31.25 nM): 8123
- HTRF mean; N=2 (PPARγ LBD; SR11237 0.671089 nM, RXRα mutant LBD 62.5 nM): 8262
- HTRF mean; N=2 (PPARγ LBD; SR11237 0.671089 nM, RXRα mutant LBD 250 nM): 8624
- HTRF mean; N=2 (PPARγ LBD; SR11237 0.671089 nM, RXRα mutant LBD 500 nM): 8662
- HTRF mean; N=2 (PPARγ LBD; SR11237 0.671089 nM, RXRα mutant LBD 1000 nM): 8739
- HTRF mean; N=2 (PPARγ LBD; SR11237 1.67772 nM, RXRα mutant LBD 0.976562 nM): 7886
- HTRF mean; N=2 (PPARγ LBD; SR11237 1.67772 nM, RXRα mutant LBD 1.95312 nM): 7834
- HTRF mean; N=2 (PPARγ LBD; SR11237 1.67772 nM, RXRα mutant LBD 3.90625 nM): 7842
- HTRF mean; N=2 (PPARγ LBD; SR11237 1.67772 nM, RXRα mutant LBD 7.8125 nM): 7973
- HTRF mean; N=2 (PPARγ LBD; SR11237 1.67772 nM, RXRα mutant LBD 31.25 nM): 8258
- HTRF mean; N=2 (PPARγ LBD; SR11237 1.67772 nM, RXRα mutant LBD 62.5 nM): 8301
- HTRF mean; N=2 (PPARγ LBD; SR11237 1.67772 nM, RXRα mutant LBD 250 nM): 8705
- HTRF mean; N=2 (PPARγ LBD; SR11237 1.67772 nM, RXRα mutant LBD 500 nM): 8706
- HTRF mean; N=2 (PPARγ LBD; SR11237 1.67772 nM, RXRα mutant LBD 1000 nM): 8875
- HTRF mean; N=2 (PPARγ LBD; SR11237 10.4858 nM, RXRα mutant LBD 0.976562 nM): 7841
- HTRF mean; N=2 (PPARγ LBD; SR11237 10.4858 nM, RXRα mutant LBD 1.95312 nM): 7813
- HTRF mean; N=2 (PPARγ LBD; SR11237 10.4858 nM, RXRα mutant LBD 3.90625 nM): 7835
- HTRF mean; N=2 (PPARγ LBD; SR11237 10.4858 nM, RXRα mutant LBD 7.8125 nM): 7963
- HTRF mean; N=2 (PPARγ LBD; SR11237 10.4858 nM, RXRα mutant LBD 31.25 nM): 8186
- HTRF mean; N=2 (PPARγ LBD; SR11237 10.4858 nM, RXRα mutant LBD 62.5 nM): 8299
- HTRF mean; N=2 (PPARγ LBD; SR11237 10.4858 nM, RXRα mutant LBD 250 nM): 8710
- HTRF mean; N=2 (PPARγ LBD; SR11237 10.4858 nM, RXRα mutant LBD 500 nM): 8818
- HTRF mean; N=2 (PPARγ LBD; SR11237 10.4858 nM, RXRα mutant LBD 1000 nM): 8916
- HTRF mean; N=2 (PPARγ LBD; SR11237 26.2144 nM, RXRα mutant LBD 0.976562 nM): 7919
- HTRF mean; N=2 (PPARγ LBD; SR11237 26.2144 nM, RXRα mutant LBD 1.95312 nM): 7957
- HTRF mean; N=2 (PPARγ LBD; SR11237 163.84 nM, RXRα mutant LBD 0.976562 nM): 7969
- HTRF mean; N=2 (PPARγ LBD; SR11237 163.84 nM, RXRα mutant LBD 1.95312 nM): 7882
- HTRF mean; N=2 (PPARγ LBD; SR11237 163.84 nM, RXRα mutant LBD 3.90625 nM): 7848
- HTRF mean; N=2 (PPARγ LBD; SR11237 163.84 nM, RXRα mutant LBD 7.8125 nM): 7981
- HTRF mean; N=2 (PPARγ LBD; SR11237 163.84 nM, RXRα mutant LBD 31.25 nM): 8037
- HTRF mean; N=2 (PPARγ LBD; SR11237 163.84 nM, RXRα mutant LBD 62.5 nM): 8496
- HTRF mean; N=2 (PPARγ LBD; SR11237 163.84 nM, RXRα mutant LBD 250 nM): 9360
- HTRF mean; N=2 (PPARγ LBD; SR11237 163.84 nM, RXRα mutant LBD 500 nM): 9174
- HTRF mean; N=2 (PPARγ LBD; SR11237 163.84 nM, RXRα mutant LBD 1000 nM): 9009
- HTRF mean; N=2 (PPARγ LBD; SR11237 1024 nM, RXRα mutant LBD 1.95312 nM): 7904
- HTRF mean; N=2 (PPARγ LBD; SR11237 1024 nM, RXRα mutant LBD 3.90625 nM): 7933
- HTRF mean; N=2 (PPARγ LBD; SR11237 1024 nM, RXRα mutant LBD 7.8125 nM): 8096
- HTRF mean; N=2 (PPARγ LBD; SR11237 1024 nM, RXRα mutant LBD 31.25 nM): 8413
- HTRF mean; N=2 (PPARγ LBD; SR11237 1024 nM, RXRα mutant LBD 62.5 nM): 8597
- HTRF mean; N=2 (PPARγ LBD; SR11237 1024 nM, RXRα mutant LBD 250 nM): 9475
- HTRF mean; N=2 (PPARγ LBD; SR11237 1024 nM, RXRα mutant LBD 500 nM): 9672
- HTRF mean; N=2 (PPARγ LBD; SR11237 1024 nM, RXRα mutant LBD 1000 nM): 9907
- HTRF mean; N=2 (PPARγ LBD; SR11237 16000 nM, RXRα mutant LBD 0.976562 nM): 8373
- HTRF mean; N=2 (PPARγ LBD; SR11237 16000 nM, RXRα mutant LBD 1.95312 nM): 8383
- HTRF mean; N=2 (PPARγ LBD; SR11237 16000 nM, RXRα mutant LBD 3.90625 nM): 8482
- HTRF mean; N=2 (PPARγ LBD; SR11237 16000 nM, RXRα mutant LBD 7.8125 nM): 8492
- HTRF mean; N=2 (PPARγ LBD; SR11237 16000 nM, RXRα mutant LBD 31.25 nM): 8658
- HTRF mean; N=2 (PPARγ LBD; SR11237 16000 nM, RXRα mutant LBD 62.5 nM): 9133
- HTRF mean; N=2 (PPARγ LBD; SR11237 16000 nM, RXRα mutant LBD 250 nM): 9981
- HTRF mean; N=2 (PPARγ LBD; SR11237 16000 nM, RXRα mutant LBD 500 nM): 10090
- HTRF mean; N=2 (PPARγ LBD; SR11237 16000 nM, RXRα mutant LBD 1000 nM): 10256
- HTRF mean; N=2 (PPARγ LBD; SR11237 100000 nM, RXRα mutant LBD 0.976562 nM): 8525
- HTRF mean; N=2 (PPARγ LBD; SR11237 100000 nM, RXRα mutant LBD 1.95312 nM): 8620
- HTRF mean; N=2 (PPARγ LBD; SR11237 100000 nM, RXRα mutant LBD 3.90625 nM): 8706
- HTRF mean; N=2 (PPARγ LBD; SR11237 100000 nM, RXRα mutant LBD 7.8125 nM): 8679
- HTRF mean; N=2 (PPARγ LBD; SR11237 100000 nM, RXRα mutant LBD 31.25 nM): 8875
- HTRF mean; N=2 (PPARγ LBD; SR11237 100000 nM, RXRα mutant LBD 62.5 nM): 9423
- HTRF mean; N=2 (PPARγ LBD; SR11237 100000 nM, RXRα mutant LBD 250 nM): 9880
- HTRF mean; N=2 (PPARγ LBD; SR11237 100000 nM, RXRα mutant LBD 500 nM): 10045
- HTRF mean; N=2 (PPARγ LBD; SR11237 100000 nM, RXRα mutant LBD 1000 nM): 9921
- HTRF mean; N=2 (PPARγ LBD; SR11237 […], RXRα mutant LBD 0.976562 nM): 8114
- HTRF mean; N=2 (PPARγ LBD; SR11237 […], RXRα mutant LBD 1.95312 nM): 8140
- HTRF mean; N=2 (PPARγ LBD; SR11237 […], RXRα mutant LBD 3.90625 nM): 8154
- HTRF mean; N=2 (PPARγ LBD; SR11237 […], RXRα mutant LBD 7.8125 nM): 8229
- HTRF mean; N=2 (PPARγ LBD; SR11237 […], RXRα mutant LBD 31.25 nM): 8421
- HTRF mean; N=2 (PPARγ LBD; SR11237 […], RXRα mutant LBD 62.5 nM): 8922
- HTRF mean; N=2 (PPARγ LBD; SR11237 […], RXRα mutant LBD 250 nM): 9616
- HTRF mean; N=2 (PPARγ LBD; SR11237 […], RXRα mutant LBD 500 nM): 9926
- HTRF mean; N=2 (PPARγ LBD; SR11237 […], RXRα mutant LBD 1000 nM): 9869
- CBP-1 recruitment relative to that seen with rosiglitazone (PPARγ LBD; other factor (RXRα or SR11237) present at ≤1 nM): ≤ 5%
